Several values for one entry are separate records, joined by “and”; a condition that tells them apart may be missing. Identical values can stand only once.
Assays:
[1] = Uptake of pyrrolizidine alkaloids into endophyte free Fescue plants after watering composition onto roots; type: in vivo; settings: leaf sub-sample after 21 days; for Pyrrolizidine Alkaloid Content, Average: average of 5 endophyte free Fescue plants, Grinding Number 1 composition watered on roots; for Pyrrolizidine Alkaloid Content: individual endophyte free Fescue plants 1-5, 100 ml Grinding Number 1 composition watered on roots every second day
Description: (§1) Pesticidal composition from Grinding Number 1 of Example 1 was watered onto the roots of endophyte free Fescue and Ryegrass plants grown in a glasshouse under controlled conditions into silica sand filled pots. Control plants were included in the plant samples and were watered with nil endophyte ground extract containing no pesticidal composition. Trial plants were each watered with 100 ml of each composition every second day with nutrient watered on alternate days. After 21 days, a sub-sample of leaf material was analysed to determine the uptake of pesticidal composition into the plants tested.
(§2) The results shown below in Table 2 for endophyte free Fescue plants and Table 3 for endophyte free Ryegrass plants clearly indicate transfer of the measured pyrrolizidine alkaloid compounds from the composition and into the plants via their root system

[2] = Uptake of pyrrolizidine alkaloids into endophyte free Ryegrass plants after watering composition onto roots; type: in vivo; settings: leaf sub-sample after 21 days; for Pyrrolizidine Alkaloid Content, Average: average of 5 endophyte free Ryegrass plants, Grinding Number 1 composition watered on roots; for Pyrrolizidine Alkaloid Content: individual endophyte free Ryegrass plants 1-5, 100 ml Grinding Number 1 composition watered on roots every second day
Description: as §1, §2

[3] = Uptake of pyrrolizidine alkaloids into cabbage plants grown in silica sand; type: in vivo, Cabbage brassica; settings: cabbage treated with composition of Grind Number 3 watered onto pots
Description: Cabbage brassica were tested with the pesticidal composition of Grind Number 3 of Example 1 watered onto the pots in which the trial cabbage plants were grown in silica sand.

| Structure (SMILES) | Pyrrolizidine Alkaloid Content, Average [1] | Pyrrolizidine Alkaloid Content [1] | Pyrrolizidine Alkaloid Content, Average [2] | Pyrrolizidine Alkaloid Content [2] | Pyrrolizidine Alkaloid Content [3] |
| --- | --- | --- | --- | --- | --- |
| CC(=O)N[C@H]1[C@H]2[C@@H]3CCN2C[C@H]1O3 [NANL, N-acetylnorloline] | 0 mg/kg or ppm | 0 mg/kg or ppm | 14 mg/kg or ppm | 0 mg/kg or ppm (3×) and 44 mg/kg or ppm and 27 mg/kg or ppm | 0 mg/kg or ppm |
| CC(=O)N(C)[C@@H]1[C@H]2[C@@H]3CCN2C[C@H]1O3 [NAL, N-acetylloline] | 75 mg/kg or ppm | 56 mg/kg or ppm and 38 mg/kg or ppm and 119 mg/kg or ppm and 69 mg/kg or ppm and 95 mg/kg or ppm | 92 mg/kg or ppm | 40 mg/kg or ppm and 37 mg/kg or ppm and 214 mg/kg or ppm and 87 mg/kg or ppm and 84 mg/kg or ppm | 6 mg/kg or ppm |
| CN(C=O)C1C2[C@@H]3CCN2C[C@H]1O3 (stereo partly drawn) [NFL, N-formylloline] | 479 mg/kg or ppm | 405 mg/kg or ppm and 382 mg/kg or ppm and 648 mg/kg or ppm and 479 mg/kg or ppm and 482 mg/kg or ppm | 644 mg/kg or ppm | 352 mg/kg or ppm and 340 mg/kg or ppm and 1152 mg/kg or ppm and 697 mg/kg or ppm and 680 mg/kg or ppm | 148 mg/kg or ppm |

Source: patent publication US10149476B2, “Pesticidal plant extract containing loline derivatives” (GRASSLANZ TECHNOLOGY LTD, priority 2007, dated 2018)
